The supplement of paper PMC11451515

Tested on: SEM cells
Experiment: cell viability relative to DMSO control; higher = less cytotoxic
Conditions: 48 h
Method in brief: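 Viability is a per-plate percentage relative to DMSO wells, with cell-free wells as background. CellTiter-Glo One luminescence was read after 48 h at 37°C on 1536-well plates (5 μl) of NOMO1 or SEM (500 cells/well) or P12-Ichikawa (1000 cells/well) leukemia cells. The cells had been adapted for at least four passages in each medium and pin-dosed with library compounds in DMSO from 47 μM to 0.79 nM in 11 threefold steps.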

[1] = HPLM + 10% dialyzed FBS, 0.000781 µM
[2] = HPLM + 10% dialyzed FBS, 0.00234 µM
[3] = HPLM + 10% dialyzed FBS, 0.00702 µM
[4] = HPLM + 10% dialyzed FBS, 0.0211 µM
[5] = HPLM + 10% dialyzed FBS, 0.0632 µM
[6] = HPLM + 10% dialyzed FBS, 0.19 µM
[7] = HPLM + 10% dialyzed FBS, 0.569 µM
[8] = HPLM + 10% dialyzed FBS, 1.71 µM
[9] = HPLM + 10% dialyzed FBS, 5.12 µM
[10] = HPLM + 10% dialyzed FBS, 15.4 µM
[11] = HPLM + 10% dialyzed FBS, 46.1 µM
[12] = RPMI 5 mM glucose + 10% FBS, 0.000781 µM
[13] = RPMI 5 mM glucose + 10% FBS, 0.00234 µM
[14] = RPMI 5 mM glucose + 10% FBS, 0.00702 µM
[15] = RPMI 5 mM glucose + 10% FBS, 0.0211 µM
[16] = RPMI 5 mM glucose + 10% FBS, 0.0632 µM
[17] = RPMI 5 mM glucose + 10% FBS, 0.19 µM
[18] = RPMI 5 mM glucose + 10% FBS, 0.569 µM
[19] = RPMI 5 mM glucose + 10% FBS, 1.71 µM
[20] = RPMI 5 mM glucose + 10% FBS, 5.12 µM
[21] = RPMI 5 mM glucose + 10% FBS, 15.4 µM
[22] = RPMI 5 mM glucose + 10% FBS, 46.1 µM
[23] = RPMI 5 mM glucose + 10% dialyzed FBS, 0.000781 µM
[24] = RPMI 5 mM glucose + 10% dialyzed FBS, 0.00234 µM
[25] = RPMI 5 mM glucose + 10% dialyzed FBS, 0.00702 µM
[26] = RPMI 5 mM glucose + 10% dialyzed FBS, 0.0211 µM
[27] = RPMI 5 mM glucose + 10% dialyzed FBS, 0.0632 µM
[28] = RPMI 5 mM glucose + 10% dialyzed FBS, 0.19 µM
[29] = RPMI 5 mM glucose + 10% dialyzed FBS, 0.569 µM
[30] = RPMI 5 mM glucose + 10% dialyzed FBS, 1.71 µM
[31] = RPMI 5 mM glucose + 10% dialyzed FBS, 5.12 µM
[32] = RPMI 5 mM glucose + 10% dialyzed FBS, 15.4 µM
[33] = RPMI 5 mM glucose + 10% dialyzed FBS, 46.1 µM

| SMILES | cell viability [1] | cell viability [2] | cell viability [3] | cell viability [4] | cell viability [5] | cell viability [6] | cell viability [7] | cell viability [8] | cell viability [9] | cell viability [10] | cell viability [11] | cell viability [12] | cell viability [13] | cell viability [14] | cell viability [15] | cell viability [16] | cell viability [17] | cell viability [18] | cell viability [19] | cell viability [20] | cell viability [21] | cell viability [22] | cell viability [23] | cell viability [24] | cell viability [25] | cell viability [26] | cell viability [27] | cell viability [28] | cell viability [29] | cell viability [30] | cell viability [31] | cell viability [32] | cell viability [33] |
| --- | --- | --- | --- | --- | --- | --- | --- | --- | --- | --- | --- | --- | --- | --- | --- | --- | --- | --- | --- | --- | --- | --- | --- | --- | --- | --- | --- | --- | --- | --- | --- | --- | --- |
| O=C\1N(N\C=C1[N]2C=CN=N2)C3=NC=NC(=C3)N4CCOCC4 | 58.1% | 74.2% | 66.2% | 69.5% | 56% | 46.9% | 20.1% | 36.9% | 21.7% | 15.8% | 12.1% | 56.6% | 102% | 108% | 95.5% | 46.8% | 28.6% | 13.6% | 13.3% | 19.2% | 14.5% | 16.8% | 52.3% | 77.4% | 74.1% | 69.3% | 66.5% | 42.8% | 17.3% | 32.8% | 19.5% | 19.9% | 16.7% |
| CC(/C=C/C(=O)NO)=C\[C@@H](C)C(=O)c1ccc(N(C)C)cc1 | 108% | 126% | 109% | 100% | 111% | 101% | 59% | 8.01% | 3.01% | 2.86% | 2.07% | 112% | 117% | 115% | 97.7% | 115% | 115% | 66.2% | 5.17% | 3.1% | 2.52% | 1.53% | 102% | 112% | 116% | 105% | 106% | 102% | 56.2% | 8.19% | 3.94% | 3.72% | 1.86% |
| CC(C)c1cc(C(=O)N2Cc3ccc(CN4CCN(C)CC4)cc3C2)c(O)cc1O | – | – | – | – | – | – | – | – | – | – | – | 104% | 105% | 107% | 17.8% | 112% | 107% | 31.1% | 23.5% | 21.5% | 23.1% | 18.3% | 125% | 120% | 120% | 20.5% | 106% | 99.9% | 47.2% | 32.4% | 29.8% | 28.8% | 25.9% |
| CN1C(=O)C[C@H](C(=O)N[C@@H](Cc2cnc[nH]2)C(=O)N2CCC[C@H]2C(N)=O)NC1=O | 117% | 108% | 142% | 121% | 111% | 127% | 122% | 120% | 116% | 97.4% | 74.3% | – | – | – | – | – | – | – | – | – | – | – | 104% | 118% | 120% | 122% | 105% | 112% | 104% | 103% | 104% | 98.1% | 50.1% |
| Cc1[nH]c(/C=C2\C(=O)Nc3ccccc32)c(C)c1CCC(=O)O | 55% | 85.6% | 76.3% | 81.6% | 68.9% | 84% | 6.38% | 32.1% | 26.4% | 26.5% | 18.7% | 71.9% | 97.7% | 108% | 82.6% | 82.4% | 86.9% | 6.07% | 37.1% | 39.1% | 30.9% | 18.3% | 47.4% | 82% | 80.5% | 76.1% | 75.5% | 83.3% | 5.75% | 26.5% | 27.6% | 22% | 15.4% |
| CCOC(=O)c1cncn1[C@H](C)c1ccccc1 | 101% | 92.8% | 92.6% | 89.6% | 108% | 96.9% | 23.1% | 106% | 113% | 96.2% | 89.8% | 111% | 110% | 97.4% | 109% | 112% | 114% | 21.6% | 107% | 117% | 108% | 111% | 118% | 116% | 93.8% | 109% | 128% | 102% | 26.4% | 115% | 98.9% | 106% | 97.7% |
| CCC\C1=C\C(=O)NC(=S)N1 | 71.1% | 74.2% | 98.3% | 30.6% | 119% | 91.1% | 7.27% | 27.9% | 79.2% | 51.5% | 75.9% | 63.3% | 91.9% | 102% | 28% | 121% | 124% | 6.88% | 22.9% | 93.1% | 52.2% | 65% | 69.2% | 74.8% | 91.7% | 54.4% | 89.8% | 125% | 6.6% | 20.3% | 92.4% | 43.1% | 50.8% |
